From US20170298081A1, “CONDENSED HETEROCYCLIC COMPOUND” (KASUMA PARTNERS INC., priority 2014, published 2017)

Columns and labels:
PCSK9 protein = assay: Influence of test compound on PCSK9 protein production amount in HepG2 cells (ELISA); assay type: cell-based, human; details: about 24 hours treatment, intracellular PCSK9 protein by ELISA, read-out: IC50 (50% PCSK9 production-suppressing concentration)
Experimental: A test compound was added to culture supernatant of cells of the human liver cancer-derived cell strain, HepG2 cells, and intracellular amount of the PCSK9 protein was measured by the enzyme-linked immunosorbent assay (ELISA) after 24 hours. Specifically, the HepG2 cells were inoculated into wells of a 96-well microplate at a density of 5 to 7.5×10^4 cells/well, and the culture supernatant was exchanged with the MEM medium containing 10% lipoprotein deficient serum (LPDS) on the next day. After the cells were further cultured for one day, the culture supernatant was exchanged with the 10% LPDS-containing MEM medium containing a test compound, and the cells were treated with the compound for about 24 hours. The medium for treating the cells was prepared by dissolving the test compound in dimethyl sulfoxide (DMSO), and adding the resulting solution to the 10% LPDS-containing medium. The medium for treating cells for control was prepared by adding DMSO to the 10% LPDS-containing medium at the same final concentration. After completion of the treatment of the cells, a solubilization buffer (1% Nonidet P-40 in phosphate buffered saline) was added to the cells to extract proteins, and they were used as a sample.
The PCSK9 protein concentration and the total protein concentration in the sample were measured by using Human PCSK9 ELISA Kit produced by R&D Systems (Cat. No. DPC900), and BCA Protein Assay Reagent. Kit produced by Thermo Scientific (Cat. No. 23227) according to the protocols described in the attached manuals, respectively. The PCSK9 protein concentration in each sample was calculated as a concentration per unit mass of proteins. Then, by using PCSK9 production suppressing ratios at various concentrations obtained in accordance with the equation mentioned below, 50% PCSK9 production-suppressing concentration (IC50) of each compound was calculated with a linear regression equation.
Equation: PCSK9 production-suppressing ratio (%)=[(Average PCSK9 protein concentration in control group−Average PCSK9 protein concentration in test compound-treated group)/Average PCSK9 protein concentration in control group]×100

[1] = tested on: dietary hyperlipidemia hamsters; assay: Efficacy test in dietary hyperlipidemia hamsters (LDL cholesterol decreasing ratio); assay type: in vivo, Slc:Syrian male hamsters; details: oral once a day for seven days, high fat diet hamsters
Experimental: As test animals, the Slc:Syrian male hamsters were used. In order to create dietary hyperlipidemia models, the hamsters were fed ad libitum with a high fat diet (mixed diet of 0.5% cholesterol and 10% palm oil) for a period from two weeks before the start of the administration of the test compound to the end of the experiment. Blood was collected one day before the day of the start of the administration, and the total blood cholesterol concentration was measured by the direct method using an automatic analyzer. On the basis of this total blood cholesterol concentration, the animals were divided into groups. From the next day, the test compound was orally administered once a day for seven days, and the animals were dissected on the day following the day of the final administration. The LDL-cholesterol concentration in the collected blood was measured by the direct method using an automatic analyzer, and LDL cholesterol decreasing ratio was calculated in accordance with the following equation for each group.
Equation: LDL cholesterol decreasing ratio (%)=[(Average LDL-cholesterol concentration of control group−Average LDL-cholesterol concentration of test compound-administered group)/Average LDL-cholesterol concentration of control group]×100

SMILES | IC50 (PCSK9 protein) [nM] | also measured
Nc1c(Cl)ccc2oc(-c3ccc(C(F)(F)F)cc3)nc12 [Example 35A, 4-Amino-5-chloro-2-(4-trifluoromethylphenyl)benzoxazole] | – | melting point: 132 to 134 °C
CC(C)OC(=O)C(C)(C)Oc1ccc(C(=O)c2ccc(Cl)cc2)cc1 [Phenofibrate, reference compound] | – | LDL cholesterol decreasing ratio (%) ([1]; dose 50 mg/kg): 25.7%
COc1cc(C#N)c(Cl)c2oc(-c3ccc(C(F)(F)F)cc3)nc12 [Example 22, 7-Chloro-6-cyano-4-methoxy-2-(4-trifluoromenthylphenyl)benzoxazole] | 99 | –
O=C(O)CCC(=O)Nc1ccc2nc(-c3ccc(C(F)(F)F)cc3)oc2c1C(F)(F)F [Example 18, 6-(3-Carbonylpropanamido)-7-trifluoromethyl-2-(4-trifluoromethylphenyl)benzoxazole] | 16.3 | –
FC(F)(F)c1ccc(-c2nc3cccc(C(F)(F)F)c3o2)cc1 [Example 25, 7-(Trifluoromethyl)-2-[4-(trifluoromethyl)phenyl]benzoxazole] | 24.5 | –
COc1ccc2cc3[n+](cc2c1OC)CCc1cc2c(cc1-3)OCO2 [Berberine chloride, reference compound] | > 10000 | –
[O-][n+]1ccc2c(ccc3oc(-c4ccc(C(F)(F)F)cc4)nc32)c1 [Example 43, 2-[4-(Trifluoromethyl)phenyl]oxazolo[4,5-f]isoquinoline 7-oxide] | 25.6 | –
CCN(CC)c1nc2c(ccc3cc(-c4ccc(C(F)(F)F)cc4)[nH]c32)o1 [Example 47, 2-Diethylamino-7-(4-trifluoromenthylphenyl)-8H-pyrrolo[2,3-e]benzoxazole] | 45.4 | –
FC(F)(F)c1ccc(-c2nc3c(ccc4cc[nH]c43)o2)cc1 [Example 31, 2-(4-Trifluoromethylphenyl)-8H-pyrrolo[2,3-e]benzoxazole] | 29.7 | –
CCc1nc2c(ccc3oc(-c4ccc(C(F)(F)F)cc4)nc32)o1 [Example 23, 2-Ethyl-7(4-trifluoromethylphenyl)benzo[2,1-d:3,4-d′]bisoxazole] | 52.3 | –
FC(F)(F)c1ccc(-c2nc3ccc(C(F)(F)F)cc3o2)cc1 [Example 24, 6-(Trifluoromethyl)-2-[4-(trifluoromethyl)phenyl]benzoxazole] | 21.4 | LDL cholesterol decreasing ratio (%) ([1]; dose 1 mg/kg): 32.6%
Nc1c(Cl)cc(Cl)c2oc(-c3ccc(C(F)(F)F)cc3)nc12 [Example 34, 4-Amino-5,7-dichloro-2-(4-trifluoromethylphenyl)benzoxazole] | 20.2 | –
NCc1cccc2oc(-c3ccc(C(F)(F)F)cc3)nc12 [Example 41, 4-Aminomethyl-2-(4-trifluoromethylphenyl)benzoxazole] | 19.2 | –
N#Cc1ccc2nc(-c3ccc(C(F)(F)F)cc3)oc2c1C(F)(F)F [Example 19, 6-Cyano-7-trifluoromethyl-2-(4-trifluoromethylphenyl)benzoxazole] | 0.188 | LDL cholesterol decreasing ratio (%) ([1]; dose 1 mg/kg): 35.2%
N#Cc1ccc2nc(-c3ccc(C(F)(F)F)cc3)oc2c1 [Example 29, 6-Cyano-2-[4-(trifluoromethyl)phenyl]benzoxazole] | 27 | –
N#Cc1ccc(N)c2nc(-c3ccc(C(F)(F)F)cc3)oc12 [Example 38] | 27.3 | –

More lines, main results first:

IC50 (PCSK9 protein) [nM] | SMILES | also measured
12.3 | FC(F)(F)c1ccc(-c2nc3cc(Cl)c(C(F)(F)F)cc3o2)cc1 [Example 27, 5-Chloro-6-(trifluoromethyl)-2-[4-(trifluoromethyl)phenyl]benzoxazole] | –
0.153 | FC(F)(F)c1ccc(-c2nc3c(C(F)(F)F)ccc(Cl)c3o2)cc1 [Example 8, 7-Chloro-4-trifluoromethyl-2-(4-trifluoromethylphenyl)benzoxazole] | –
3.95 | FC(F)(F)c1ccc(-c2nc3ccc(NC4CC4)c(C(F)(F)F)c3o2)cc1 [Example 20, 6-(Cyclopropylamino)-7-trifluoromethyl-2-(4-trifluoromethylphenyl)benzoxazole] | –
4.54 | FC(F)(F)c1ccc(-c2nc3ccc(C4CC4)c(C(F)(F)F)c3o2)cc1 [Example 14, 6-Cyclopropyl-7-trifluoromethyl-2-(4-trifluoromethylphenyl)benzoxazole] | –
0.802 | FC(F)(F)c1ccc(-c2nc3ccc(Cl)c(C(F)(F)F)c3o2)cc1 [Example 1, 6-Chloro-7-trifluoromethyl-2-(4-trifluoromethylphenyl)benzoxazole] | –
0.0182 | N#Cc1ccc2nc(-c3ccc(C(F)(F)F)cc3)oc2c1Cl [Example 9, 7-Chloro-6-cyano-2-(4-trifluoromethylphenyl)benzoxazole] | –
2.94 | Fc1c(Cl)cc2nc(-c3ccc(C(F)(F)F)cc3)oc2c1Cl [Example 12, 5,7-Dichloro-6-fluoro-2-(4-trifluoromethylphenyl)benzoxazole] | –
1.24 | Nc1ccc(Cl)c2oc(-c3ccc(C(F)(F)F)cc3)nc12 [Example 35B, 4-Amino-7-chloro-2-(4-trifluoromethylphenyl)benzoxazole] | melting point: 149 to 150 °C
2.08 | CC(=O)Nc1ccc2nc(-c3ccc(C(F)(F)F)cc3)oc2c1C(F)(F)F [Example 16, 6-Acetamido-7-trifluoromethyl-2-(4-trifluoromethylphenyl)benzoxazole] | –
1.34 | N#Cc1cc(Cl)c2nc(-c3ccc(C(F)(F)F)cc3)oc2c1 [Example 11, 4-Chloro-6-cyano-2-(4-trifluoromethylphenyl)benzoxazole] | –
2.5 | FC(F)(F)c1ccc(-c2nc3ccc(I)c(Cl)c3o2)cc1 [Example 6, 7-Chloro-6-iodo-2-(4-trifluoromethylphenyl)benzoxazole] | LDL cholesterol decreasing ratio (%) ([1]; dose 5 mg/kg): 41.8%
8.19 | Fc1c(C(F)(F)F)ccc2nc(-c3ccc(C(F)(F)F)cc3)oc12 [Example 3, 7-Fluoro-6-trifluoromethyl-2-(4-trifluoromethylphenyl)benzoxazole] | –
0.426 | FC(F)(F)c1ccc(-c2nc3c(Cl)c(C(F)(F)F)ccc3o2)cc1 [Example 4, 4-Chloro-5-trifluoromethyl-2-(4-trifluoromethylphenyl)benzoxazole] | –
5.17 | N#Cc1cc(Cl)c2oc(-c3ccc(C(F)(F)F)cc3)nc2c1N [Example 36, 4-Amino-7-chloro-5-cyano-2-(4-trifluoromethylphenyl)benzoxazole] | –
3.97 | CN(C)c1nc2c(ccc3oc(-c4ccc(C(F)(F)F)cc4)nc32)s1 [Example 40, 7-Dimethylamino-2-(4-trifluoromethylphenyl)thiazolo[4,5-e]benzoxazole] | –
0.036 | FC(F)(F)c1ccc(-c2nc3ccc(C(F)(F)F)c(Cl)c3o2)cc1 [Example 7, 7-Chloro-6-trifluoromethyl-2-(4-trifluoromethylphenyl)benzoxazole] | LDL cholesterol decreasing ratio (%) ([1]; dose 0.01 mg/kg): 45.5%; LDL cholesterol decreasing ratio (%) ([1]; dose 0.04 mg/kg): 56.9%
2.68 | Nc1c(-c2ccc(C(F)(F)F)cc2)[nH]c2c(Cl)c(Cl)ccc12 [Example 45, 3-Amino-6,7-dichloro-2-(4-trifluoromethylphenyl)indole] | –
1.35 | FC(F)(F)c1ccc(-c2nc3cc(C(F)(F)F)cc(Cl)c3o2)cc1 [Example 28, 7-Chloro-5-(trifluoromethyl)-2-[4-(trifluoromethyl)phenyl]benzoxazole] | LDL cholesterol decreasing ratio (%) ([1]; dose 0.2 mg/kg): 63.6%
4.96 | Nc1ccc(Br)c2oc(-c3ccc(C(F)(F)F)cc3)nc12 [Example 33, 4-Amino-7-bromo-2-(4-trifluoromethylphenyl)benzoxazole] | –
13.9 | Clc1ccc2nc(-c3nc4c(Cl)cccc4o3)sc2c1 [Example 44, 4-Chloro-2-(6-chloro-benzothiazol-2-yl)benzoxazole] | –
5.85 | OCCNc1ccc2nc(-c3ccc(C(F)(F)F)cc3)oc2c1C(F)(F)F [Example 21, 6-(2-Hydroxyethylamino)-7-trifluoromethyl-2-(4-trifluoromethylphenyl)benzoxazole] | –
